# Test results taken from PubChem BioAssay AID2060484 (Molecular Pharmacology Branch, DTP, NCI, 2025).
# Tested on: SUM149PT spheroids with HUVEC/MSC, viability
# Assay: Anticancer human tumor SUM149PT cell line growth inhibition [GQUAD];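 further: spheroids exposed to drugs for seven days before readout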;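 on viability, T/C: percent viability relative to DMSO vehicle control taken as 100%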
# Details: for IC50: curve of first compound; for viability, T/C: stronger effect = lower value
# In short: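 Viability of tumor cells grown as complex spheroids with endothelial and stromal cells, exposed to drug combinations. Top concentration at or near clinical Cmax (else 10 microM), diluted in half-log increments.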
# [1] = second compound 0.0316 µM, first compound 0.0316 µM
# [2] = second compound 0.0316 µM, first compound 0.1 µM
# [3] = second compound 0.0316 µM, first compound 0.316 µM
# [4] = second compound 0.0316 µM, first compound 1 µM
# [5] = second compound 0.0316 µM, first compound 3.16 µM
# [6] = second compound 0.0316 µM, first compound 10 µM
# [7] = second compound 0.1 µM, first compound 0.0316 µM
# [8] = second compound 0.1 µM, first compound 0.1 µM
# [9] = second compound 0.1 µM, first compound 0.316 µM
# [10] = second compound 0.1 µM, first compound 1 µM
# [11] = second compound 0.1 µM, first compound 3.16 µM
# [12] = second compound 0.1 µM, first compound 10 µM
# [13] = second compound 0.316 µM, first compound 0.0316 µM
# [14] = second compound 0.316 µM, first compound 0.1 µM
# [15] = second compound 0.316 µM, first compound 0.316 µM
# [16] = second compound 0.316 µM, first compound 1 µM
# [17] = second compound 0.316 µM, first compound 3.16 µM
# [18] = second compound 0.316 µM, first compound 10 µM
# [19] = second compound 1 µM, first compound 0.0316 µM
# [20] = second compound 1 µM, first compound 0.1 µM
# [21] = second compound 1 µM, first compound 0.316 µM
# [22] = second compound 1 µM, first compound 1 µM
# [23] = second compound 1 µM, first compound 3.16 µM
# [24] = second compound 1 µM, first compound 10 µM
# [25] = second compound 3.16 µM, first compound 0.0316 µM
# [26] = second compound 3.16 µM, first compound 0.1 µM
# [27] = second compound 3.16 µM, first compound 0.316 µM
# [28] = second compound 3.16 µM, first compound 1 µM
# [29] = second compound 3.16 µM, first compound 3.16 µM
# [30] = second compound 3.16 µM, first compound 10 µM
# [31] = second compound 10 µM, first compound 0.0316 µM
# [32] = second compound 10 µM, first compound 0.1 µM
# [33] = second compound 10 µM, first compound 0.316 µM
# [34] = second compound 10 µM, first compound 1 µM
# [35] = second compound 10 µM, first compound 3.16 µM
# [36] = second compound 10 µM, first compound 10 µM
smiles,measurement,setting,value
C#Cc1c(F)ccc2cc(O)cc(-c3ncc4c(N5CC6CCC(C5)N6)nc(OCC56CCCN5CC(F)C6)nc4c3F)c12 (stereo not given) + CN(C)c1ccc(Nc2c3ccc(NC(=O)CCN4CCCC4)cc3nc3cc(NC(=O)CCN4CCCC4)ccc23)cc1,IC50,second compound 0.0316 µM,5270 nM
same,IC50,second compound 0.1 µM,7470 nM
same,IC50,second compound 0.316 µM,2450 nM
same,IC50,second compound 1 µM,4570 nM
same,IC50,second compound 3.16 µM,1570 nM
same,IC50,second compound 10 µM,1710 nM
same,"viability, T/C",[1],100%
same,"viability, T/C",[2],93.3%
same,"viability, T/C",[3],73.5%
same,"viability, T/C",[4],73.8%
same,"viability, T/C",[5],57.2%
same,"viability, T/C",[6],40.8%
same,"viability, T/C",[7],107%
same,"viability, T/C",[8],102%
same,"viability, T/C",[9],88.1%
same,"viability, T/C",[10],66.3%
same,"viability, T/C",[11],58.1%
same,"viability, T/C",[12],46.6%
same,"viability, T/C",[13],93.6%
same,"viability, T/C",[14],83.9%
same,"viability, T/C",[15],68.7%
same,"viability, T/C",[16],57.1%
same,"viability, T/C",[17],49.6%
same,"viability, T/C",[18],38.6%
same,"viability, T/C",[19],75.5%
same,"viability, T/C",[20],82.8%
same,"viability, T/C",[21],77.2%
same,"viability, T/C",[22],61.3%
same,"viability, T/C",[23],61.1%
same,"viability, T/C",[24],34.1%
same,"viability, T/C",[25],88.2%
same,"viability, T/C",[26],81.6%
same,"viability, T/C",[27],73.3%
same,"viability, T/C",[28],51.3%
same,"viability, T/C",[29],45.2%
same,"viability, T/C",[30],31%
same,"viability, T/C",[31],80.7%
same,"viability, T/C",[32],86.6%
same,"viability, T/C",[33],62.8%
same,"viability, T/C",[34],56.3%
same,"viability, T/C",[35],45%
same,"viability, T/C",[36],19%
CC(=O)O[C@H]1C(=O)[C@@]2(C)[C@H]([C@H](OC(=O)c3ccccc3)[C@]3(O)C[C@H](OC(=O)[C@H](O)[C@@H](NC(=O)c4ccccc4)c4ccccc4)C(C)=C1C3(C)C)[C@]1(OC(C)=O)CO[C@@H]1C[C@@H]2O + CN(C)c1ccc(Nc2c3ccc(NC(=O)CCN4CCCC4)cc3nc3cc(NC(=O)CCN4CCCC4)ccc23)cc1,IC50,second compound 0.0316 µM,< 31.6 nM
same,IC50,second compound 0.1 µM,< 31.6 nM
same,IC50,second compound 0.316 µM,< 31.6 nM
same,IC50,second compound 1 µM,< 31.6 nM
same,IC50,second compound 3.16 µM,< 31.6 nM
same,IC50,second compound 10 µM,< 31.6 nM
same,"viability, T/C",[1],31.9%
same,"viability, T/C",[2],25.3%
same,"viability, T/C",[3],23.8%
same,"viability, T/C",[4],19.5%
same,"viability, T/C",[5],19.8%
same,"viability, T/C",[6],23.6%
same,"viability, T/C",[7],32.8%
same,"viability, T/C",[8],24.7%
same,"viability, T/C",[9],21.6%
same,"viability, T/C",[10],17.8%
same,"viability, T/C",[11],19.6%
same,"viability, T/C",[12],25.7%
same,"viability, T/C",[13],30.6%
same,"viability, T/C",[14],25.6%
same,"viability, T/C",[15],22.8%
same,"viability, T/C",[16],18.3%
same,"viability, T/C",[17],17.2%
same,"viability, T/C",[18],22.8%
same,"viability, T/C",[19],29.6%
same,"viability, T/C",[20],24.4%
same,"viability, T/C",[21],16.5%
same,"viability, T/C",[22],13.8%
same,"viability, T/C",[23],17%
same,"viability, T/C",[24],19.2%
same,"viability, T/C",[25],27.7%
same,"viability, T/C",[26],21.1%
same,"viability, T/C",[27],17.5%
same,"viability, T/C",[28],12.9%
same,"viability, T/C",[29],15.7%
same,"viability, T/C",[30],16.2%
same,"viability, T/C",[31],26.8%
same,"viability, T/C",[32],23.3%
same,"viability, T/C",[33],15.8%
same,"viability, T/C",[34],14.5%
same,"viability, T/C",[35],15.7%
same,"viability, T/C",[36],18.2%
COc1cccc2c1C(=O)c1c(O)c3c(c(O)c1C2=O)CC(O)(C(=O)CO)CC3OC1CC(N)C(O)C(C)O1 (stereo not given) + CN(C)c1ccc(Nc2c3ccc(NC(=O)CCN4CCCC4)cc3nc3cc(NC(=O)CCN4CCCC4)ccc23)cc1,IC50,second compound 0.0316 µM,279 nM
same,IC50,second compound 0.1 µM,260 nM
same,IC50,second compound 0.316 µM,273 nM
same,IC50,second compound 1 µM,159 nM
same,IC50,second compound 3.16 µM,240 nM
same,IC50,second compound 10 µM,217 nM
same,"viability, T/C",[1],102%
same,"viability, T/C",[2],67.8%
same,"viability, T/C",[3],52.5%
same,"viability, T/C",[4],27.3%
same,"viability, T/C",[5],5.04%
same,"viability, T/C",[6],1.9%
same,"viability, T/C",[7],97.9%
same,"viability, T/C",[8],67.9%
same,"viability, T/C",[9],48.2%
same,"viability, T/C",[10],27.4%
same,"viability, T/C",[11],2.62%
same,"viability, T/C",[12],0.68%
same,"viability, T/C",[13],79.5%
same,"viability, T/C",[14],67.5%
same,"viability, T/C",[15],46.9%
same,"viability, T/C",[16],25.2%
same,"viability, T/C",[17],2.96%
same,"viability, T/C",[18],1.86%
same,"viability, T/C",[19],73.5%
same,"viability, T/C",[20],53.2%
same,"viability, T/C",[21],42.5%
same,"viability, T/C",[22],23.4%
same,"viability, T/C",[23],3.28%
same,"viability, T/C",[24],1.27%
same,"viability, T/C",[25],71%
same,"viability, T/C",[26],58.4%
same,"viability, T/C",[27],48.1%
same,"viability, T/C",[28],24.1%
same,"viability, T/C",[29],4.84%
same,"viability, T/C",[30],2.15%
same,"viability, T/C",[31],78.9%
same,"viability, T/C",[32],59.2%
same,"viability, T/C",[33],45.6%
same,"viability, T/C",[34],28.1%
same,"viability, T/C",[35],4%
same,"viability, T/C",[36],2.22%
Nc1ccn(C2OC(CO)C(O)C2(F)F)c(=O)n1 (stereo not given) + CN(C)c1ccc(Nc2c3ccc(NC(=O)CCN4CCCC4)cc3nc3cc(NC(=O)CCN4CCCC4)ccc23)cc1,IC50,second compound 0.0316 µM,110 nM
same,IC50,second compound 0.1 µM,173 nM
same,IC50,second compound 0.316 µM,128 nM
same,IC50,second compound 1 µM,96.5 nM
same,IC50,second compound 3.16 µM,62.8 nM
same,IC50,second compound 10 µM,42.1 nM
same,"viability, T/C",[1],87.9%
same,"viability, T/C",[2],51%
same,"viability, T/C",[3],34.6%
same,"viability, T/C",[4],27.2%
same,"viability, T/C",[5],25.9%
same,"viability, T/C",[6],20.8%
same,"viability, T/C",[7],80.2%
same,"viability, T/C",[8],59.7%
same,"viability, T/C",[9],39.6%
same,"viability, T/C",[10],26.7%
same,"viability, T/C",[11],23.7%
same,"viability, T/C",[12],20.8%
same,"viability, T/C",[13],68.1%
same,"viability, T/C",[14],55.3%
same,"viability, T/C",[15],34.7%
same,"viability, T/C",[16],26.6%
same,"viability, T/C",[17],25.6%
same,"viability, T/C",[18],15.8%
same,"viability, T/C",[19],65.8%
same,"viability, T/C",[20],51.2%
same,"viability, T/C",[21],32.7%
same,"viability, T/C",[22],27.9%
same,"viability, T/C",[23],21.4%
same,"viability, T/C",[24],16.5%
same,"viability, T/C",[25],65.4%
same,"viability, T/C",[26],39.8%
same,"viability, T/C",[27],24.3%
same,"viability, T/C",[28],21.6%
same,"viability, T/C",[29],17.8%
same,"viability, T/C",[30],14.8%
same,"viability, T/C",[31],55.1%
same,"viability, T/C",[32],35.7%
same,"viability, T/C",[33],25%
same,"viability, T/C",[34],20.9%
same,"viability, T/C",[35],18.8%
same,"viability, T/C",[36],13.4%
O=c1[nH]cc(F)c(=O)[nH]1 + CN(C)c1ccc(Nc2c3ccc(NC(=O)CCN4CCCC4)cc3nc3cc(NC(=O)CCN4CCCC4)ccc23)cc1,IC50,second compound 0.0316 µM,8990 nM
same,IC50,second compound 0.1 µM,> 10000 nM
same,IC50,second compound 0.316 µM,8350 nM
same,IC50,second compound 1 µM,8640 nM
same,IC50,second compound 3.16 µM,6640 nM
same,IC50,second compound 10 µM,4530 nM
same,"viability, T/C",[1],105%
same,"viability, T/C",[2],93.2%
same,"viability, T/C",[3],99.2%
same,"viability, T/C",[4],98.8%
same,"viability, T/C",[5],63.5%
same,"viability, T/C",[6],48.6%
same,"viability, T/C",[7],100%
same,"viability, T/C",[8],92%
same,"viability, T/C",[9],94.4%
same,"viability, T/C",[10],99.3%
same,"viability, T/C",[11],61.5%
same,"viability, T/C",[12],57.3%
same,"viability, T/C",[13],86.5%
same,"viability, T/C",[14],93.3%
same,"viability, T/C",[15],86.5%
same,"viability, T/C",[16],89.5%
same,"viability, T/C",[17],70%
same,"viability, T/C",[18],46.2%
same,"viability, T/C",[19],83.5%
same,"viability, T/C",[20],91.6%
same,"viability, T/C",[21],94.8%
same,"viability, T/C",[22],99.4%
same,"viability, T/C",[23],68.8%
same,"viability, T/C",[24],47.2%
same,"viability, T/C",[25],81.5%
same,"viability, T/C",[26],80%
same,"viability, T/C",[27],82.8%
same,"viability, T/C",[28],92.5%
same,"viability, T/C",[29],60%
same,"viability, T/C",[30],44.5%
same,"viability, T/C",[31],80.6%
same,"viability, T/C",[32],80.9%
same,"viability, T/C",[33],91.2%
same,"viability, T/C",[34],94%
same,"viability, T/C",[35],52.5%
same,"viability, T/C",[36],44.3%
